Measured values: patent US20250073184A1, “CANNABIGEROQUINONE COMPOUNDS, COMPOSITIONS INCLUDING SUCH COMPOUNDS, AND USES OF SUCH COMPOUNDS AND COMPOSITIONS” (Juva Life, Inc., priority 2021, published 2025)
Like-named read-outs stand apart in the source and are kept apart here.

What was measured:
[1] = molecular target: T1, Recombinant human ALOX15 (Arachidonate 15-Lipoxygenase) (Homo sapiens, UniProt P16050); assay: Biochemical LOX-15 assay
T1 construct: full length encompassing amino acids 2-662(end); purchased BPS Biosciences 50220
T1 sequence (P16050 2-662): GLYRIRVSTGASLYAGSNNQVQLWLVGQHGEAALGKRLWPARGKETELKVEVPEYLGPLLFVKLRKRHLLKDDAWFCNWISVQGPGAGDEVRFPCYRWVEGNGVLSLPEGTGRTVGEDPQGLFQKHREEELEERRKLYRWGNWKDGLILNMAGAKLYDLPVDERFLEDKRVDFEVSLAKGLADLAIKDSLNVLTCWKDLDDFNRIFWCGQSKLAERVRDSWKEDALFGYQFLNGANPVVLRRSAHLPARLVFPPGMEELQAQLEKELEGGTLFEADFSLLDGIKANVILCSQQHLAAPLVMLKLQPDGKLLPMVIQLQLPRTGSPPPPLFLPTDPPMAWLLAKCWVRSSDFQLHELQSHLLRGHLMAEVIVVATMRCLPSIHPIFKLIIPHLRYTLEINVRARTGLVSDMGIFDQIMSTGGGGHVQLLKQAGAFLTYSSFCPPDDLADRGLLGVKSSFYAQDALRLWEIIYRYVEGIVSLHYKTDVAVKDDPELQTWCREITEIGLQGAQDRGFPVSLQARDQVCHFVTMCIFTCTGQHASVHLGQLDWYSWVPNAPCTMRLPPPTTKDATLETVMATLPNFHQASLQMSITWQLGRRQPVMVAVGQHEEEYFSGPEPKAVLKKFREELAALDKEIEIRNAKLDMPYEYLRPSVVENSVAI
Experimental: The LOX-15 assay was performed in assay buffer comprising: 50 mM Tris (pH 7.5), 5 uM DHR, 50 uM AA, and 50 nM recombinant enzyme. Serially diluted compounds were prepared in DMSO in Echo qualified 384 well plates. An assay buffer was then prepared […] supplemented 10 uM DHRA. 10 uL of the supplemented buffer was dispensed into control (no enzyme) wells in the black 384 well assay plate. Next, a 2× enzyme solution was prepared, comprising 100 nM LOX-15 enzyme in the supplemented assay buffer. 10 μL of the 2× enzyme solution was then dispensed into test wells in the black 384 well assay plate. Serially diluted compounds were added to the assay plate by acoustic dispensing (Labcyte 550). Control wells received DMSO only.
Next, the 2× substrate was prepared to comprise 100 uM arachidonic acid in the assay buffer. 10 uL of the 2× substrate was then added to all wells in the assay plate. The plate was incubated for 3 hours.
where RFU100% is fluorescence in control samples without compound, RFU0% is fluorescence in control samples without LOX-15, and RFUcompound fluorescence in a sample with compound.
The calculated %-Inh values were plotted against compound concentration. To determine EC50 values, dose-response curves were fitted by a 4-parameter sigmoid inhibition model using XLFit® software (IDBS).

IL10 = IL10 secretion assay in human PBMCs (PHA-M, ELISA); type: cell-based; conditions: for EC50: read-out: Inhibitory Activity EC50, IL10
Experimental: Fetal bovine serum (FBS) was obtained from ThermoFisher (Cat #16000044). • Other reagents: 96 well TC plates were obtained from ThermoFisher (Cat #07-2000-90).
Cryopreserved PBMCs were thawed in a water bath and transferred to 50 mL polypropylene tubes. The cells were washed two times with 25 mL of RPMI medium supplemented with 5% of regular FBS and re-suspended at a density of 1.5^^6 cells/mL. The cells were plated into 96 well TC late (100 uL/well). Serially diluted compound was added to the cells in duplicate wells for each concentration. Control wells received DMSO only (0.3% final). The cells were pre-incubated with compound for 2 hr. After pre-incubation, the cells were stimulated by PHA-M (10 ug/mL) for 40 hr. Control samples with and without PHA-M in the absence of compound were assembled in each test plate. […] ELISA readout (optical density at 450 nm) is commensurable with the amount of IL10 produced by the cells. Assay window was determined in each experiment by comparing average OD450 values in stimulated and un-stimulated samples in the absence of compound. ELISA calibration was performed in each detection plate using serially diluted recombinant human IL10 standard, to ensure that OD450 values for all test samples were within linear range of detection.%-Inhibition by compound was calculated using following equation:
where OD450100% is optical density in control samples stimulated with PHA-M without compound, OD4500% is optical density in unstimulated control samples, and OD450compound is optical density in a sample stimulated with PHA-M in the presence of compound. The calculated %-Inh values were plotted against compound concentration. To determine IC50 values, dose-response curves were fitted by a 4-parameter sigmoid inhibition model using XLFit® software (IDBS).

IL-6 = IL-6 secretion assay in human PBMCs (LPS, ELISA); type: cell-based; conditions: read-out: Inhibitory Activity EC50, IL6
Experimental: Fetal bovine serum (FBS) was obtained from ThermoFisher (Cat #16000044). • Other reagents: 96 well TC plates were obtained from ThermoFisher (Cat #07-2000-90). LPS was obtained from Sigma (Cat #L3024).
IL-6 was assessed using a standard ELISA protocol. Cryopreserved PBMCs were thawed in a water bath and transferred to 50 mL polypropylene tubes. The cells were washed two times with 25 mL of RPMI medium supplemented with 5% of heat-inactivated FBS and re-suspended at a density of 4.5^^6 cells/mL. The cells were plated into 96 well TC late (100 uL/well). Serially diluted compound was added to the cells in duplicate wells for each concentration. Control wells received DMSO only (0.3% final). The cells were pre-incubated with compound for 1 hr. After pre-incubation, the cells were stimulated by LPS (100 ng/mL) for 6 hr. Control samples with and without LPS in the absence of compound were assembled in each test plate. IL-6 was detected in media supernatants by using a sandwich anti-IL-6 ELISA kit (BD Biosciences) according to protocol provided by the manufacturer. ELISA readout (optical density at 450 nm) is commensurable with the amount of IL-6 produced by the cells. Assay window was determined in each experiment by comparing average OD450 values in stimulated and un-stimulated samples in the absence of compound. ELISA calibration was performed in each detection plate using serially diluted recombinant human IL-6, to ensure that OD450 values for all test samples were within linear range of detection.%-Inhibition by compound was calculated using following equation.
where OD450100% is optical density in control samples stimulated with LPS without compound, OD4500% is optical density in unstimulated control samples, and OD450compound is optical density in a sample stimulated with LPS in the presence of compound.
The calculated %-Inh values were plotted against compound concentration. To determine IC50 values, dose-response curves were fitted by a 4-parameter sigmoid inhibition model using XLFit® software (IDBS).

IL-1β = IL-1β inhibitory activity; type: cell-based
[2] = recombinant enzyme, read-out: Inhibitory Activity EC50, 15-Lox
[3] = PBMC, human PBMCs, PHA-M 10 ug/mL 40 hr
[4] = PBMC, human PBMCs, LPS 100 ng/mL 6 hr

CCCCCc1cc(O)c(C/C=C(\C)CCC=C(C)C)c(O)c1O [Formula XXXIX] was tested, and the EC50 [1, 2] was 2.82 µM, the “inhibitory activity on IL-10” value (IL10) was “particular strong inhibitory activity” and the EC50 (IL10; Homo sapiens, PBMC, 40 h) was 1.69 µM. For the same molecule, the EC50 (IL-6; Homo sapiens, PBMC, 6 h) was over 10 µM and the EC50 (IL-1β) was 0.89 µM.
Molecule CCCCCc1cc(OC)c(C/C=C(\C)CCC=C(C)C)c(O)c1OC [Formula XLII] has an EC50 [1] of 18 µM, an EC50 (IL10; [3]) of over 10 µM and an EC50 (IL-6; [4]) of over 10 µM. It also gave an EC50 (IL-1β) of over 10 µM.
CCCCCc1cc(OC(C)=O)c(C/C=C(\C)CCC=C(C)C)c(O)c1OC(C)=O [Formula XLIII] was tested, and the EC50 [1] was 8.4 µM, the “inhibitory activity on IL-10” value (IL10) was “particular strong inhibitory activity” and the EC50 (IL10; [3]) was 1.2 µM. It also gave an EC50 (IL-6; [4]) of over 10 µM and an EC50 (IL-1β) of 0.89 µM.
For CCCCCC1=C(NC)C(=O)C(C/C=C(\C)CCC=C(C)C)=C(O)C1=O [Formula XLI], the EC50 [1] was 28.8 µM, the “inhibitory activity on IL-10” value (IL10) was “particular strong inhibitory activity” and the EC50 (IL10; [3]) was over 10 µM. It also gave an EC50 (IL-6; [4]) of over 10 µM and an EC50 (IL-1β) of 0.12 µM.
With Cannabigerol Quinone [Formula VI] the “stronger inhibition of 15-Lox compared to Cox-2” value [1] was “over 60 fold”, the EC50 [1, 2] was 0.98 µM and the EC50 (IL10; human PBMCs, PHA-M 10 ug/mL 40 hr) was 1.1 µM. For the same molecule, the EC50 (IL-6; human PBMCs, LPS 100 ng/mL 6 hr) was 17.9 µM and the EC50 (IL-1β) was 5.3 µM.
